Results: ChEMBL document CHEMBL1201862, “PubChem BioAssay data set” (2004)
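Growth conditions: 96-well plates. Treatment: test compound, 48 hours, 5 concentrations. Analysis: linear interpolation between bracketing concentrations; unreached endpoints set to highest concentration. Abbreviation: GI50, concentration required for 50% inhibition of growth.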 Calls of active or inactive are those of the source. No stated cut-off is given here; in the data, active = GI50 up to about 1.1 µM and inactive = higher.

Columns and labels:
Assay in all cases: inhibition of tumour cell growth, NCI panel, 48 h
[1] = test system: OVCAR-8
[2] = test system: UACC-257
[3] = test system: NCI-H23
[4] = test system: MDA-MB-231
[5] = test system: SK-MEL-28
[6] = test system: HCT-116
[7] = test system: U-251
[8] = test system: CCRF-CEM
[9] = test system: NCI-H460
[10] = test system: UACC-62
[11] = test system: MDA-MB-435
[12] = test system: SK-OV-3
[13] = test system: HT-29
[14] = test system: MCF7
[15] = test system: A498
[16] = test system: SF-539
[17] = test system: EKVX
[18] = test system: T47D
[19] = test system: SNB-75
[20] = test system: NCI-H226

Compound	GI50 [1]	GI50 [2]	GI50 [3]	GI50 [4]	GI50 [5]	GI50 [6]	GI50 [7]	GI50 [8]	GI50 [9]	GI50 [10]	GI50 [11]	GI50 [12]	GI50 [13]	GI50 [14]	GI50 [15]	GI50 [16]	GI50 [17]	GI50 [18]	GI50 [19]	GI50 [20]
Cc1c(-c2ccccc2)[nH]c2cn[nH]c(=O)c12	> 100 µM (inactive)	> 100 µM (inactive)	> 100 µM (inactive)	> 100 µM (inactive)	> 100 µM (inactive)	> 100 µM (inactive)	> 100 µM (inactive)	57.1 µM (inactive)	> 100 µM (inactive)	59.2 µM (inactive)	> 100 µM (inactive)	42.5 µM (inactive)	> 100 µM (inactive)	45.1 µM (inactive)	> 100 µM (inactive)	> 100 µM (inactive)	34.6 µM (inactive)	–	–	–
O=C(CCN1CCOCC1)Nc1ccc2sc3ccccc3c(=O)c2n1	35.9 µM (inactive)	62.2 µM (inactive)	49.1 µM (inactive)	35.6 µM (inactive)	53.5 µM (inactive)	23 µM (inactive)	42.9 µM (inactive)	19.7 µM (inactive)	37.8 µM (inactive)	34.8 µM (inactive)	42.4 µM (inactive)	47.6 µM (inactive)	> 100 µM (inactive)	49.8 µM (inactive)	–	60.5 µM (inactive)	58.2 µM (inactive)	20.6 µM (inactive)	19.6 µM (inactive)	–
O=C1CCC2(c3ccc(Cl)cc3)Nc3ccncc3N12 (configuration not stated)	> 10 µM (inactive)	> 10 µM (inactive)	> 10 µM (inactive)	0.00507 µM (active)	–	> 10 µM (inactive)	> 10 µM (inactive)	> 10 µM (inactive)	> 10 µM (inactive)	> 10 µM (inactive)	> 10 µM (inactive)	5.52 µM (inactive)	> 10 µM (inactive)	–	–	> 10 µM (inactive)	> 10 µM (inactive)	–	> 10 µM (inactive)	> 10 µM (inactive)
Cc1ccc(C)n1-c1ccccc1C1SCCCS1	> 100 µM (inactive)	> 100 µM (inactive)	> 100 µM (inactive)	49.9 µM (inactive)	> 100 µM (inactive)	> 100 µM (inactive)	> 100 µM (inactive)	59.8 µM (inactive)	> 100 µM (inactive)	> 100 µM (inactive)	> 100 µM (inactive)	> 100 µM (inactive)	53.3 µM (inactive)	37.3 µM (inactive)	> 100 µM (inactive)	> 100 µM (inactive)	> 100 µM (inactive)	–	84.5 µM (inactive)	> 100 µM (inactive)
Ic1ncnc2c1ncn2C1CCCO1 (configuration not stated)	> 100 µM (inactive)	> 100 µM (inactive)	> 100 µM (inactive)	–	> 100 µM (inactive)	> 100 µM (inactive)	> 100 µM (inactive)	> 100 µM (inactive)	> 100 µM (inactive)	> 100 µM (inactive)	–	> 100 µM (inactive)	> 100 µM (inactive)	–	> 100 µM (inactive)	> 100 µM (inactive)	> 100 µM (inactive)	–	35.8 µM (inactive)	> 100 µM (inactive)
CCOc1cc(NC(C)=O)ccc1C(=O)NNS(=O)(=O)c1ccc(NC(C)=O)cc1	69.3 µM (inactive)	> 100 µM (inactive)	97.3 µM (inactive)	–	99.1 µM (inactive)	44.1 µM (inactive)	–	38.9 µM (inactive)	39.6 µM (inactive)	57.3 µM (inactive)	27.9 µM (inactive)	50.9 µM (inactive)	47.8 µM (inactive)	40.6 µM (inactive)	51.8 µM (inactive)	33.2 µM (inactive)	56 µM (inactive)	> 100 µM (inactive)	72.9 µM (inactive)	25.2 µM (inactive)
COc1ccc(-c2cc(-c3cc(F)c(Cl)cc3Cl)on2)cc1OC	72.3 µM (inactive)	22.4 µM (inactive)	29.9 µM (inactive)	20.1 µM (inactive)	28.3 µM (inactive)	29.2 µM (inactive)	25.9 µM (inactive)	12.5 µM (inactive)	26.2 µM (inactive)	–	1.8 µM (inactive)	44.6 µM (inactive)	22.5 µM (inactive)	–	–	4.61 µM (inactive)	75.5 µM (inactive)	15.6 µM (inactive)	28.9 µM (inactive)	13.3 µM (inactive)
O=C(/C=C/c1ccccc1O)C(c1ccccc1)c1ccccc1	> 100 µM (inactive)	> 100 µM (inactive)	> 100 µM (inactive)	–	> 100 µM (inactive)	> 100 µM (inactive)	> 100 µM (inactive)	60.8 µM (inactive)	> 100 µM (inactive)	> 100 µM (inactive)	–	> 100 µM (inactive)	> 100 µM (inactive)	–	> 100 µM (inactive)	> 100 µM (inactive)	> 100 µM (inactive)	–	20.1 µM (inactive)	> 100 µM (inactive)
O=[N+]([O-])c1cccc(-c2oc(/C=N/c3ccccc3)c([N+](=O)[O-])c2-c2cccc([N+](=O)[O-])c2)c1	> 100 µM (inactive)	> 100 µM (inactive)	> 100 µM (inactive)	–	> 100 µM (inactive)	> 100 µM (inactive)	> 100 µM (inactive)	> 100 µM (inactive)	> 100 µM (inactive)	> 100 µM (inactive)	–	> 100 µM (inactive)	> 100 µM (inactive)	–	> 100 µM (inactive)	> 100 µM (inactive)	> 100 µM (inactive)	–	> 100 µM (inactive)	> 100 µM (inactive)
O=C1CCC2(CC1)Cc1ccccc1C2O (configuration not stated)	> 100 µM (inactive)	> 100 µM (inactive)	> 100 µM (inactive)	> 100 µM (inactive)	> 100 µM (inactive)	> 100 µM (inactive)	> 100 µM (inactive)	> 100 µM (inactive)	> 100 µM (inactive)	> 100 µM (inactive)	–	> 100 µM (inactive)	> 100 µM (inactive)	> 100 µM (inactive)	–	> 100 µM (inactive)	> 100 µM (inactive)	> 100 µM (inactive)	< 0.01 µM (active)	> 100 µM (inactive)
O=c1[nH]n(Cc2ccccc2)c2ccc([N+](=O)[O-])cc12	> 100 µM (inactive)	60.8 µM (inactive)	56.5 µM (inactive)	28.7 µM (inactive)	57.9 µM (inactive)	49.4 µM (inactive)	49.8 µM (inactive)	55.2 µM (inactive)	40.6 µM (inactive)	> 100 µM (inactive)	19.9 µM (inactive)	15.7 µM (inactive)	41.2 µM (inactive)	28.2 µM (inactive)	47.3 µM (inactive)	87.1 µM (inactive)	> 100 µM (inactive)	–	–	> 100 µM (inactive)
CCOC(=O)c1nc2ccccc2nc1Nc1cc(OC)c(OC)c(OC)c1	–	–	> 100 µM (inactive)	> 100 µM (inactive)	> 100 µM (inactive)	> 100 µM (inactive)	> 100 µM (inactive)	> 100 µM (inactive)	> 100 µM (inactive)	> 100 µM (inactive)	> 100 µM (inactive)	> 100 µM (inactive)	> 100 µM (inactive)	> 100 µM (inactive)	–	> 100 µM (inactive)	> 100 µM (inactive)	> 100 µM (inactive)	43.6 µM (inactive)	–
Nc1ccc(-c2cssc2=S)cc1	45.7 µM (inactive)	59.6 µM (inactive)	–	39.3 µM (inactive)	49.7 µM (inactive)	42 µM (inactive)	40.7 µM (inactive)	–	33.9 µM (inactive)	26.9 µM (inactive)	35.1 µM (inactive)	44.6 µM (inactive)	51.9 µM (inactive)	52.1 µM (inactive)	–	52.8 µM (inactive)	41.6 µM (inactive)	–	–	56.5 µM (inactive)
CC(C)[Si](Oc1cc2c3c(ccc2c(O)c1[C@@H](C)CO[Si](C)(C)C(C)(C)C)C(C)(C)CCC3)(C(C)C)C(C)C	> 100 µM (inactive)	29.4 µM (inactive)	> 100 µM (inactive)	> 100 µM (inactive)	> 100 µM (inactive)	> 100 µM (inactive)	> 100 µM (inactive)	43.4 µM (inactive)	78 µM (inactive)	> 100 µM (inactive)	> 100 µM (inactive)	> 100 µM (inactive)	> 100 µM (inactive)	> 100 µM (inactive)	> 100 µM (inactive)	> 100 µM (inactive)	> 100 µM (inactive)	–	69.8 µM (inactive)	> 100 µM (inactive)
CCOc1ccccc1NC(=O)CCC(=O)NN	> 100 µM (inactive)	> 100 µM (inactive)	> 100 µM (inactive)	–	> 100 µM (inactive)	> 100 µM (inactive)	> 100 µM (inactive)	> 100 µM (inactive)	> 100 µM (inactive)	> 100 µM (inactive)	–	> 100 µM (inactive)	> 100 µM (inactive)	–	> 100 µM (inactive)	> 100 µM (inactive)	–	–	> 100 µM (inactive)	> 100 µM (inactive)
Clc1cc(-c2ccccc2)nc(Nc2nc3ccccc3[nH]2)n1	22 µM (inactive)	20.6 µM (inactive)	18.2 µM (inactive)	15 µM (inactive)	–	25.1 µM (inactive)	15.3 µM (inactive)	6.08 µM (inactive)	19 µM (inactive)	17.7 µM (inactive)	23.3 µM (inactive)	64.7 µM (inactive)	15 µM (inactive)	–	33.3 µM (inactive)	> 100 µM (inactive)	24 µM (inactive)	> 100 µM (inactive)	34.4 µM (inactive)	55.5 µM (inactive)
